Data from patent US7625718B2, “SVCT2 transporters expressed in blood brain barrier cells” (XenoPort, Inc., priority 2005, dated 2009).

Tests used:
[1] = target: T1, hSVCT2 (Homo sapiens, UniProt Q9UGH3); assay: hSVCT2 direct uptake assay in HEK-TREx-hSVCT2 cells (LC-MS-MS); type: cell-based; settings: HEK-TREx-hSVCT2 cells induced to express hSVCT2
T1 construct: expressed in transfected cells; host or cells: HEK-TREx cells, tetracycline-induced
Description: A modified direct uptake assay was developed to determine the ability of test compounds to be transported into HEK-TREx cells induced to over-express hSVCT2. Four concentrations (bracketing the affinity as measured by competition assays) per compound were routinely tested. Non-specific uptake was determined by measuring the uptake into cells not induced to express the transporter (“no tet”).
The direct uptake assays were prepared as follows: Compounds were prepared for assay by diluting a 100 mM stock concentration (in DMSO or water, depending on compound solubility) to the appropriate working concentration. Typically, four concentrations bracketing the IC50 were tested. The highest test concentration for each compound was made in an Eppendorf tube and diluted into HBSS. The samples were robustly vortexed and centrifuged for 10 minutes at 13,200 rpm to spin down any precipitate. The supernatant from these samples (˜150 μl/well) was carefully removed and placed into six wells of row A (cmpd 1: A1-6; cmpd 2: A7-12) or row E (cmpd 3: E1-6; cmpd 4: E7-12) of a 96-well polypropylene “compound” plate. Three additional 2-fold dilutions were made in the subsequent rows (B-D or […]) in HBSS. […]

[2] = target: T1, hSVCT2; assay: hSVCT2 competition uptake assay in HEK-TREx-hSVCT2 cells; type: cell-based
Description: A modified competition uptake assay was developed to determine the ability of a test compound(s) to inhibit the uptake of radiolabeled substrates into […] induced to over-express hSVCT2. The results are stated as affinities (IC50). The competition uptake assay was prepared as follows: Compounds were prepared for assay by diluting a 100 mM stock concentration (in DMSO) to the appropriate working concentration. Typically, seven-point dose response curves were prepared starting at a final assay concentration of 1 mM and carrying out three-fold dilutions. […] Scintillation fluid (200 μl) (Optiphase Supermix (Perkin Elmer) was added to each well, and the plate was covered with a 96-well adhesive plate cover and placed on a shaker for 10 minutes. The plates were counted on a 96-well plate scintillation counter for 60 sec/well. The data were analyzed using a sigmoidal dose response curve-fitting program (Prism, GraphPad, Inc, San Diego, Calif.; equation: one-site competition). FIG. 2 depicts the results of a competition experiment using HEK-TREx-SVCT2 cells. ^3H-Ascorbic acid was used as the substrate and unlabeled ascorbic acid was used as the competitor. […] Non-specific uptake was determined by measuring the uptake into cells not induced to express the transporter (“no tet”). […]

[3] = target: T2, PgP (Homo sapiens, UniProt P08183); assay: Transwell monolayer efflux assay in TREx-PgP MDCK cells; type: in vitro ADME
T2 construct: expressed in transfected cells; host or cells: MDCK cells, tetracycline-inducible
Description: Transwell monolayer efflux assays can be performed by transfecting MDCK cells with the tetracycline-inducible TREx-PgP expression vector. The cells optionally can be transfected with a nucleic acid encoding the transporter of interest. The transfected cells are seeded on polycarbonate filter membranes in transwell dishes and grown for 3-5 days, yielding a polarized monolayer with tight junctions between cells.

[4] = 2.5 nM, in the presence of 250 μM verapamil

T2 sequence (P08183 whole entry): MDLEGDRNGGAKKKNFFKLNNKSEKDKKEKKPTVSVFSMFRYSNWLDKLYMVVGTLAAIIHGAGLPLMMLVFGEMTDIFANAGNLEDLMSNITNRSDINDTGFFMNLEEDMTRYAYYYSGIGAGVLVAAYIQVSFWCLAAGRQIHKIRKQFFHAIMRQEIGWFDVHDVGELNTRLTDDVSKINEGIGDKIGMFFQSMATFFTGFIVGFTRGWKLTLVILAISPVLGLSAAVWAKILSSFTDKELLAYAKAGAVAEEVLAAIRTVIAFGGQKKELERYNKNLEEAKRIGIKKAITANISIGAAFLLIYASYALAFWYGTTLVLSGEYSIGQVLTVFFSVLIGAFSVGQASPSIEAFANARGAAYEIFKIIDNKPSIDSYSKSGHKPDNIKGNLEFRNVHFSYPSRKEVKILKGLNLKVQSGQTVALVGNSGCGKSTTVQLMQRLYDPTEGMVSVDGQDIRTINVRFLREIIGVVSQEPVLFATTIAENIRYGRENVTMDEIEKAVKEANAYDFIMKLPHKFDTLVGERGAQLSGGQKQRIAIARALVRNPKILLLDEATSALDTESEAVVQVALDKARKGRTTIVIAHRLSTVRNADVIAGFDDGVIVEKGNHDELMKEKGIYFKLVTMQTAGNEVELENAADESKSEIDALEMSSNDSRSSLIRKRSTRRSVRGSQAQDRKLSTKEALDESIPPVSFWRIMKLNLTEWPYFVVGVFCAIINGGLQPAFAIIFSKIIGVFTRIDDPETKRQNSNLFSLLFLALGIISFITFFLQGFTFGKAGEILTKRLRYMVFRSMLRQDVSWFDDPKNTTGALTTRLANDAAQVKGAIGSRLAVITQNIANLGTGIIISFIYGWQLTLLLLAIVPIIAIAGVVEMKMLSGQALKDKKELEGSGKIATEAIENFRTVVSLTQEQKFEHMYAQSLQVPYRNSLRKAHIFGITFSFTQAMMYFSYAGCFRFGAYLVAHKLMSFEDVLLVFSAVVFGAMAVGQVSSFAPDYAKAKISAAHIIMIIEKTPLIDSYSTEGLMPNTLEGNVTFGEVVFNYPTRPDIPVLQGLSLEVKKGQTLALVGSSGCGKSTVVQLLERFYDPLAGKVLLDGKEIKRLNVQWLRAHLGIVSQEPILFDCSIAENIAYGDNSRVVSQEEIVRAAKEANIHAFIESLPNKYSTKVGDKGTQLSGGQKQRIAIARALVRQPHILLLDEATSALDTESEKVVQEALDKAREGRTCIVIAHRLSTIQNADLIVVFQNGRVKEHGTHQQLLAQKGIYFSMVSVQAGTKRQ
T1 sequence (Q9UGH3 whole entry): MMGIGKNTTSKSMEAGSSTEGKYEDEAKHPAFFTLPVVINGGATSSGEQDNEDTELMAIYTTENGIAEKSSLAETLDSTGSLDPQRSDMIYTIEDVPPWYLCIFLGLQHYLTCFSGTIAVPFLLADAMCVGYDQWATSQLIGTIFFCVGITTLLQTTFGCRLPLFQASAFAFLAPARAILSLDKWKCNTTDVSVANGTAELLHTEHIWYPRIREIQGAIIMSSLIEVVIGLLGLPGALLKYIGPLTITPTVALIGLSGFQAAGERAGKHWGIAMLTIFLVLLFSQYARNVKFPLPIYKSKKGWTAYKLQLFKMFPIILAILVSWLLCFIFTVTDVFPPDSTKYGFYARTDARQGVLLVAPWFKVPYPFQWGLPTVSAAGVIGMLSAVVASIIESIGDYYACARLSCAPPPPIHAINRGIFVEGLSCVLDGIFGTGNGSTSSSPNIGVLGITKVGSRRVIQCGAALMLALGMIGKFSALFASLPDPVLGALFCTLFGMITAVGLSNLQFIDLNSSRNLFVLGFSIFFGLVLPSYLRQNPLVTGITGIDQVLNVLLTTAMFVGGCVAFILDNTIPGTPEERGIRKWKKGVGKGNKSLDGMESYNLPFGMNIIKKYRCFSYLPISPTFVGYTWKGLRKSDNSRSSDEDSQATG

| Direct Uptake Vmax [1] | uptake of labeled ascorbic acid as concentration of unlabeled ascorbic acid increased ([2]; cells induced to express SVCT2, ^3H-ascorbic acid substrate, FIG. 2) | IC50 ([2]; inhibition of radiolabeled ascorbic acid uptake, HEK-TREx-hSVCT2 cells induced to express hSVCT2) | efflux transporter substrate status [3] | apical to basolateral transport [3, 4] | basolateral to apical transport [3, 4] | Compound |
| --- | --- | --- | --- | --- | --- | --- |
| 21 pmol/min/well | decreased | 55 µM |  |  |  | O=C1O[C@H]([C@@H](O)CO)C(O)=C1O [Ascorbic Acid] |
|  |  |  | substrate of PgP | strongly increased | strongly decreased | CC[C@]1(O)C[C@@H]2CN(CCc3c([nH]c4ccccc34)[C@@](C(=O)OC)(c3cc4c(cc3OC)N(C)[C@H]3[C@@](O)(C(=O)OC)[C@H](OC(C)=O)[C@]5(CC)C=CCN6CC[C@]43[C@@H]65)C2)C1 [^3H-vinblastine] |
